From patent US20250340556A1, “PYRIMIDOPYRIMIDONE COMPOUNDS AND METHODS OF USE THEREOF” (Soltego, Inc., priority 2022, published 2025)
Entries after “also recorded” stand apart in the source; their conditions may differ. Like-named read-outs stand apart in the source and are kept apart here.

How the values were obtained:
[1] = system: living human skin explants; experiment: Pigmentation of living human skin explants ex vivo (Example 10); assay type: cell-based; settings: 15 mM and 21 mM, 5 μL/cm2 topically each day for 6 days
Experimental: SLT-045 (3, 7, 15, 21 mM; 5 μL/cm2) in vehicle (44.9% DMSO/37.5% EtOH/17.4% propylene glycol) was applied topically applied using a Pasteur pipette, each day for 6 days using triplicate skin samples (8 mm punch).

SIK1 = SIK1 (Homo sapiens (Human), UniProt P57059); experiment: cell-based
SIK1, sequence (P57059 whole entry): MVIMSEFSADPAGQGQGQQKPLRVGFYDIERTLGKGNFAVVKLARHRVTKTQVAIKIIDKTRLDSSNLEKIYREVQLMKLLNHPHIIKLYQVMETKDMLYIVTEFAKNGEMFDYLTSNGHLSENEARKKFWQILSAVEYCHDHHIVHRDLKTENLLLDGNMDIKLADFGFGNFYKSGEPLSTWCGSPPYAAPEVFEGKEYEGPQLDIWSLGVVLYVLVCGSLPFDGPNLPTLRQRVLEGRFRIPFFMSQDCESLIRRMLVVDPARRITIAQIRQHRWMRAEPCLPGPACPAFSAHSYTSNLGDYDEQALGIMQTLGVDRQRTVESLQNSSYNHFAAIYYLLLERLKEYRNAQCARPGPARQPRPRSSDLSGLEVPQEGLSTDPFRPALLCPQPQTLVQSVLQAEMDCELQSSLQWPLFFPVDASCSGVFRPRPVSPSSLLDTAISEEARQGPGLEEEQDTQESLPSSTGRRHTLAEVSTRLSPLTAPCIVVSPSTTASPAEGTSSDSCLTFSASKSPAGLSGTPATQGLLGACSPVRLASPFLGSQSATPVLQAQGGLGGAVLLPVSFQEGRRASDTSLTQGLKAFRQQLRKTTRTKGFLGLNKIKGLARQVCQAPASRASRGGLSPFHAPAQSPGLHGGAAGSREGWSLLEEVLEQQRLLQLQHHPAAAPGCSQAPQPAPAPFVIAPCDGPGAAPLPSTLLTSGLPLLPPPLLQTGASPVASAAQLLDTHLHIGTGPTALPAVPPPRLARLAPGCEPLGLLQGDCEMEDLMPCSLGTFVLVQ

[2] = system: living human skin explants; experiment: Cell viability of living human skin explants, Masson's trichrome staining (Example 8); assay type: cell-based; settings: 1% topical in vehicle E
Experimental: All the tested products were diluted in the vehicle noted as E (Ethanol 65%, Propylene glycol 25%, Transcutol 10%). The diluted solutions were stored at 4° C. within the study period. 36 human skin explants of an average diameter of 11 mm (+1 mm) were prepared on an abdoplasty coming from a person (reference: P2462-AB53) with a III phototype. The explants were kept in survival in BEM culture medium (BIO-EC's Explants Medium) at 37° C. in a humid, 5%-CO2 atmosphere. Study is performed on human skin tissue, obtained from surgical residues in full respect with the Declaration of Helsinki and the article L. 1243-4 of the French Public Health Code.
The excipient E and the tested products were applied topically at a rate of 2 μL per 1 cm^2 explant (˜2 mg/cm^2) and spread and gently rubbed for 10 seconds using a small spatula on day 0 (DO), D3, D5, D7 and D10. […] The culture medium was half renewed (1 ml per well) on D3, D5, D7 and D10. On D0, D3, D4, D5, D6, D7 and D10, the culture media of the irradiated explants (UV) were replaced by HBSS (Hank's Balanced Saline Solution; 1 ml per explant). Then, the explants of the “UV” batch were irradiated using a UV simulator Vibert Lourmat RMX 3W with a dose of 2.25 J/cm^2 of UVA (with 6-8% of UVB) corresponding to 0.5 MED (minimal erythemal dose) on a skin with a III phototype. At the end of the UV irradiation, the explants form the batch TUV were put back in 2 mL of BEM medium. On D0, the 3 explants from the batch TO were collected and cut in two parts. Half was fixed in buffered formalin solution and half was frozen at −80° C. On D10, 3 explants from the concerned batches were collected and treated in the same way than in DO. According to the dispositions mentioned in the study plan, the days of treatments, irradiations and sampling were adjusted to the schedule of working days. After fixation for 24 hours in buffered formalin, the samples were dehydrated and impregnated in paraffin using a Leica PEARL dehydration automat. The samples were embedded using a Leica EG 1160 embedding station. 5-μm-thick sections were made using a Leica RM 2125 Minot-type microtome, and the sections were mounted on Superfrost® histological glass slides. The frozen samples were cut into 7-μm-thick sections using a Leica CM 3050 cryostat. Sections were then mounted on Superfrost®, plus silanized glass slides. The microscopical observations were realized using a Leica DMLB or Olympus BX43 microscope. Pictures were digitized with a numeric DP72 Olympus camera with CellSens storing software.
The cell viability of the epidermal and dermal structures was assessed by microscopical observation of formalin-fixed paraffin-embedded (FFPE) skin sections after Masson's trichrome staining, Goldner variant.

B16 4A5 cells = experiment: B16 4A5 cell viability, MTS assay; assay type: cell-based, mouse; settings: 5 μg/mL, 72 h, compared with DMSO 0.1% control
Experimental: B16 4A5 cells were seeded in 24-well plates at 20,000 cells/well, 24 h before the beginning of the treatment with test compounds at 5 concentrations, in triplicates (n=3). […] Additionally, DMSO at 0.1%, used for solubilization of the test compounds, was tested in parallel. The treatments were performed in culture medium containing only 1% of FBS. […] The effects of the compounds on B16 4A5 viability was assessed. To this purpose, cells were incubated during 72 h with 5 concentrations of the compounds, were left untreated, treated with SDS or with DMSO 0.1%.

[3] = system: living human skin explants; experiment: Melanin in living human skin explants, Fontana-Masson staining (Example 9); assay type: cell-based; settings: for melanin content (staining, microscopical observation): Propylene glycol 30%; for surface occupied by melanin in the basal cell layer of the epidermis: vehicle E 7.9
Experimental: All the tested products were diluted in the vehicle (Ethanol 70%, Propylene glycol 30%). 24 human skin explants of an average diameter of […] were prepared on an abdoplasty coming from a person (reference: P2511-AB43) with a II phototype. The explants were kept in survival in BEM culture medium (BIO-EC's Explants Medium) at 37° C. in a humid, 5%-CO2 atmosphere. Products were applied topically at a rate of 2 μL per 1 cm^2 explant (2 mg/cm^2) and spread and gently rubbed for 10 seconds using a small spatula on day 0 (D0), D2, D5 and D7. […] The culture medium was half renewed (1 ml per well) on D2, D5 and D7. After fixation for 24 hours in buffered formalin, the samples were dehydrated and impregnated in paraffin using a Leica PEARL dehydration automat. The samples were embedded using a Leica EG 1160 embedding station. 5-μm-thick sections were made using a Leica RM 2125 Minot-type microtome, and the sections were mounted on Superfrost® histological glass slides. The frozen samples were cut into 7-μm-thick sections using a Leica CM 3050 cryostat. Sections were then mounted on Superfrost® plus silanized glass slides. The microscopical observations were realized using a Leica DMLB or Olympus BX43 microscope. Pictures were digitized with a numeric DP72 Olympus camera with CellSens storing software. Melanin was visualized after silver impregnation according to Masson's Fontana staining method on FFPE skin sections. The staining was assessed by microscopical observation (FIG. 5) and by image analysis (FIG. 6).

[4] = ester bond, 14-membered ring
SIK2 (h) = SIK2 (h) (Homo sapiens (Human), UniProt Q9H0K1); experiment: SIK2 kinase activity, Eurofins KinaseProfiler ([γ-33P]-ATP filter assay); assay type: biochemical; settings: Table 6, macrocycles; read-out: IC50 nM SIK2
Experimental: (§1) SIK1, 2 and 3 kinase activity was assessed using a Eurofins Cerep S.A. (‘Eurofins’) KinaseProfiler. All compounds were prepared to 50× final assay concentration in 100% DMSO. This working stock of the compound was added to the assay well as the first component in the reaction, followed by the remaining components as detailed in the general assay protocols below. In the standard KinaseProfiler service, there is no pre-incubation step between the compound and the kinase prior to initiation of the reaction. The positive control well contains all components of the reaction, except the compound of interest; however, DMSO (at a final concentration of 2%) is included in these wells to control for solvent effects. The blank wells contain all components of the reaction, with a reference inhibitor replacing the compound of interest. This abolishes kinase activity and establishes the base-line (0% kinase activity remaining).
(§2) SIK2 (h) was incubated with 8 mM MOPS pH 7.0, 0.2 mM EDTA, 100 μM […], 10 mM Magnesium acetate and [γ-33P-ATP](specific activity and concentration as required). The reaction was initiated by the addition of the Mg/ATP mix. After incubation for 40 minutes at room temperature, the reaction was stopped by the addition of phosphoric acid to a concentration of 0.5%, 10 μL of the reaction was then spotted onto a P30 filtermat and washed four times for 4 minutes in 0.425% phosphoric acid and once in methanol prior to drying and scintillation counting.

[5] = system: living human skin explants; assay type: cell-based
SIK3 (h) = SIK3 (h) (Homo sapiens (Human), UniProt Q9Y2K2); experiment: SIK3 kinase activity, Eurofins KinaseProfiler ([γ-33P]-ATP filter assay); assay type: biochemical; settings: Table 6, macrocycles
Experimental: as §1
as §2, with “SIK3 (h) was” for “SIK2 (h) was”, “the reaction is stopped by” for “the reaction was stopped by”, “0.5%, […] of the” for “0.5%, 10 μL of the”

SIK (h) / SIK1 = SIK (h) / SIK1 (Homo sapiens (Human), UniProt P57059); experiment: SIK1 kinase activity, Eurofins KinaseProfiler ([γ-33P]-ATP filter assay); assay type: biochemical; settings: Table 6, macrocycles
Experimental: as §1
as §2, with “SIK” for “SIK2”, “[γ-33P]-ATP (specific” for “[γ-33P-ATP](specific”

## COC(=O)Cc1cc(Nc2ncc3c(n2)N(CCCO)C(=O)N(c2c(C)cccc2C)C3)ccc1N1CCN(C)CC1 [SLT-045]
[1]
  visual skin pigmentation: induced a visual skin pigmentation

## Cc1cccc(C)c1N1Cc2cnc3nc2N(CCCOC(=O)Cc2cc(ccc2N2CCN(C)CC2)N3)C1=O [SLT-048]
SIK1
  EC50: 2.58 nM
[2]
  cell viability of epidermal and dermal structures: very slightly decreased
B16 4A5 cells
  viability of cells: slightly diminished
[3]; 0.2% topical
  change of surface occupied by melanin in the basal cell layer vs the vehicle: +24%
  surface occupied by melanin in the basal cell layer of the epidermis: 10.0
[3]; 0.2% topical in Ethanol 70%
  melanin content (staining, microscopical observation): slight increase; also recorded: increased
[3]; 2% topical
  change of surface occupied by melanin in the basal cell layer vs the vehicle: +56%
  surface occupied by melanin in the basal cell layer of the epidermis: 12.6
[3]; 2% topical in Ethanol 70%
  melanin content (staining, microscopical observation): moderate increase; also recorded: highly increased
[4]; from Cc1cccc(C)c1N1Cc2cnc(Nc3ccc(N4CCN(C)CC4)c(CC(=O)O)c3)nc2N(CCCO)C1=O, DCC/DMAP/3A MS, DCM/DMF, 25.0 °C, 2.0 h
  ring closure, isolated yield: 21%
SIK2 (h)
  IC50: 0.6 nM

## Cc1cccc(C)c1N1Cc2cnc3nc2N(CCCC(=O)OCc2cc(ccc2N2CCN(C)CC2)N3)C1=O [SLT-026]
SIK1
  EC50: 3.24 nM
[2]
  cell viability of epidermal and dermal structures: very slightly decreased
[5]
  increase of melanin in the suprabasal layers: 50%
SIK3 (h)
  IC50: 3 nM
SIK (h) / SIK1
  IC50: 2 nM
[4]; from Cc1cccc(C)c1N1Cc2cnc(Nc3ccc(N4CCN(C)CC4)c(CO)c3)nc2N(CCCC(=O)O)C1=O, DCC/DMAP/3A MS, DCM/DMF, 5.37 mM, 25.0 °C, 16.0 h
  ring closure, isolated yield: 9%
SIK2 (h)
  IC50: 2 nM

## Cc1cccc(C)c1N1Cc2cnc3nc2N(CCCCOC(=O)c2cc(ccc2N2CCN(C)CC2)N3)C1=O [SLT-042]
SIK1
  EC50: 2.02 nM
[2]
  cell viability of epidermal and dermal structures: very slightly decreased
[5]
  increase of melanin in the suprabasal layers: 25%
SIK3 (h)
  IC50: 2 nM
SIK (h) / SIK1
  IC50: 2 nM
[4]; from Cc1cccc(C)c1N1Cc2cnc(Nc3ccc(N4CCN(C)CC4)c(C(=O)O)c3)nc2N(CCCCO)C1=O, 2,4,6-trichlorobenzoyl chloride/TEA, DMAP, toluene/DMF, 5.0 mM, 110.0 °C, 16.0 h
  ring closure, isolated yield: 22%
SIK2 (h)
  IC50: 0.7 nM
